# Laboratory results as given in paper PMC6332508, “A Promising PET Tracer for Imaging of α7 Nicotinic Acetylcholine Receptors in the Brain: Design, Synthesis, and in Vivo Evaluation of a Dibenzothiophene-Based Radioligand” (Molecules, 2015).
# Values joined by “and” are separate entries in the source; they are usually repeats but may differ in a detail not shown here. Identical values can stand only once.
# Test system: α7 nAChR
# Assay: Dynamic PET studies in piglets with kinetic modelling (2TCM)
# Format: in vivo
# Design: clearance rate constant k2, mean: unit not given here
# Details: for VND / BPND / Rate Constant K1 / Rate Constant k2 / Rate Constant k3 / Rate Constant k4: piglet brain, 240 min scan data, n = 3; for total volume of distribution VT: piglet, K1/k2(1 + k3/k4)
# Description: One-tissue and two-tissue compartment models (1TCM and 2TCM) were evaluated for mathematical description of [^18F]10a time-activity curves (TACs) in pig brain regions (Figure 3) using metabolite-corrected arterial plasma input functions. The 2TCM was identified as the more appropriate model based on its smaller Akaike information criterion (AIC) value. The four rate constants K1, k2, k3, and k4 were fitted and the non-displaceable volume of distribution (VND = K1/k2) and the binding potential (BPND = k3/k4) as defined by Innis et al. were calculated for each region of interest (Table 3 and Table 4).
# Six female animals were used in this study with anesthesia and surgery performed as described previously. In brief, the animals received initially a premedication with midazolam (1 mg∙kg^−1 i.m.) followed by induction of anesthesia with 3% isoflurane in 70% N2O/30% O2. All incision sites were infiltrated with 1% lidocaine, and the anesthesia was maintained with 1.5% isoflurane throughout the surgical procedure. A central venous catheter was introduced through the left external jugular vein and used for the administration of the radiotracer and drugs, and for volume substitution with heparinized (50 IE∙mL^−1) lactated Ringer’s solution (2 mL∙kg^−1∙h^−1). An endotracheal tube was inserted by tracheotomy for artificial ventilation (Servo Ventilator 900C, Siemens-Elema, Solna, Sweden) after immobilization with pancuronium bromide (0.2 mg∙kg^−1∙h^−1). The artificial ventilation was adjusted to obtain normoxia and normocapnia (Radiometer ABL 500, Copenhagen, Denmark). Polyurethane catheters (i.d., 0.5 mm) were advanced through the left and the right femoral arteries into the abdominal aorta to withdraw arterial blood samples for regular monitoring of blood gases and for radiotracer input function measurements and metabolite analyses. The body temperature was monitored by a rectal temperature probe and maintained at ~38 °C by a heating pad. After the surgical procedure has been completed, anesthesia was maintained with 0.5% isoflurane in 70% N2O/30% O2, and the animals were allowed to stabilize for 1 h before imaging procedure.
# PET imaging was performed according to the protocol described recently. In brief, a clinical tomograph (ECAT Exact HR+; Siemens Healthcare GmbH, Erlangen, Germany) was used with animals lying prone with the head placed in a custom-made head holder. For attenuation and scatter correction, transmission scans were acquired using three rotating ^68Ge rod sources. The radiotracer was injected as an intravenous (i.v.) bolus (10 mL saline with 340–494 MBq [^18F]10a) by a syringe pump within 2 min followed by flushing with 10 mL heparinized saline (50 IE∙mL^−1). PET scanning started at the time of injection (0 min) and dynamic emission data were acquired for a total of 240 min. Three animals were investigated under baseline conditions, and another three under blocking conditions with administration of 3 mg∙kg^−1 i.v. of the α7 nAChR partial agonist NS6740 at 3 min before radiotracer injection followed by a continuous infusion throughout the scan (1 mg∙kg^−1∙h^−1).
# Arterial blood was sampled using a peristaltic pump during the first 20 min of the scan followed by manual sampling at 25, 30, 40, 50, 60, 90, 120, 150, 180, 210, and 240 min after injection. Plasma was obtained by centrifugation (13,000 rpm, 2 min at 21 °C) and total radioactivity concentration was measured using a gamma-counter (1470 Wizard; PerkinElmer, Shelton, CT, USA) cross-calibrated to the PET scanner. In addition, arterial whole blood was sampled manually at 4, 16, 30, 60, and 120 min p.i. and plasma obtained for metabolite analyses to determine the fraction of non-metabolized [^18F]10a.
# The plasma input function was corrected for the presence of radioactive metabolites by determination of the parent fraction as described previously. […]
# [1] = Occipital Cortex, blocking (NS6740)
# [2] = Parietal Cortex, blocking (NS6740)
smiles,measurement,setting,value
O=S1(=O)c2ccc([18F])cc2-c2ccc(N3CCN4CCC3CC4)cc21 [[^18F]10a],VND,"Occipital Cortex, baseline",4.07 ± 2.23
same,BPND,[1],0.95 ± 1.03
same,Rate Constant K1,[1],0.668 ± 0.103 mL·cm^−3·min^−1
same,Rate Constant k2,[1],0.064 ± 0.019 min⁻¹
same,Rate Constant k3,[1],0.022 ± 0.032 min⁻¹
same,Rate Constant k4,[1],0.013 ± 0.023 min⁻¹
same,VND,[1],11.36 ± 4.41
same,BPND,"Parietal Cortex, baseline",3.47 ± 1.65
same,Rate Constant K1,"Parietal Cortex, baseline",0.399 ± 0.038 mL·cm^−3·min^−1
same,Rate Constant k2,"Parietal Cortex, baseline",0.140 ± 0.089 min⁻¹
same,Rate Constant k3,"Parietal Cortex, baseline",0.126 ± 0.135 min⁻¹
same,Rate Constant k4,"Parietal Cortex, baseline",0.031 ± 0.021 min⁻¹
same,VND,"Parietal Cortex, baseline",3.88 ± 2.49
same,BPND,[2],0.82 ± 0.88
same,Rate Constant K1,[2],0.659 ± 0.120 mL·cm^−3·min^−1
same,Rate Constant k2,[2],0.055 ± 0.013 min⁻¹
same,Rate Constant k3,[2],0.015 ± 0.020 min⁻¹
same,Rate Constant k4,[2],0.011 ± 0.021 min⁻¹
same,VND,[2],12.58 ± 4.52
same,BPND,"Pons, baseline",2.76 ± 0.81
same,Rate Constant K1,"Pons, baseline",0.440 ± 0.045 mL·cm^−3·min^−1
same,Rate Constant k2,"Pons, baseline",0.149 ± 0.059 min⁻¹
same,Rate Constant k3,"Pons, baseline",0.068 ± 0.042 min⁻¹
same,Rate Constant k4,"Pons, baseline",0.026 ± 0.019 min⁻¹
same,VND,"Pons, baseline",3.32 ± 1.40
same,BPND,"Pons, blocking (NS6740)",0.76 ± 1.16
same,Rate Constant K1,"Pons, blocking (NS6740)",0.670 ± 0.092 mL·cm^−3·min^−1
same,Rate Constant k2,"Pons, blocking (NS6740)",0.084 ± 0.030 min⁻¹
same,Rate Constant k3,"Pons, blocking (NS6740)",0.019 ± 0.023 min⁻¹
same,Rate Constant k4,"Pons, blocking (NS6740)",0.012 ± 0.016 min⁻¹
same,VND,"Pons, blocking (NS6740)",8.93 ± 3.96
same,BPND,"Striatum, baseline",3.98 ± 1.40
same,Rate Constant K1,"Striatum, baseline",0.382 ± 0.028 mL·cm^−3·min^−1
same,Rate Constant k2,"Striatum, baseline",0.144 ± 0.079 min⁻¹
same,Rate Constant k3,"Striatum, baseline",0.114 ± 0.093 min⁻¹
same,Rate Constant k4,"Striatum, baseline",0.027 ± 0.014 min⁻¹
same,VND,"Striatum, baseline",3.35 ± 1.81
same,BPND,"Striatum, blocking (NS6740)",0.75 ± 1.29
same,Rate Constant K1,"Striatum, blocking (NS6740)",0.624 ± 0.143 mL·cm^−3·min^−1
same,Rate Constant k2,"Striatum, blocking (NS6740)",0.057 ± 0.015 min⁻¹
same,Rate Constant k3,"Striatum, blocking (NS6740)",0.020 ± 0.025 min⁻¹
same,Rate Constant k4,"Striatum, blocking (NS6740)",0.011 ± 0.017 min⁻¹
same,VND,"Striatum, blocking (NS6740)",11.78 ± 4.91
same,BPND,"Thalamus, baseline",3.51 ± 1.13
same,Rate Constant K1,"Thalamus, baseline",0.448 ± 0.027 mL·cm^−3·min^−1
same,Rate Constant k2,"Thalamus, baseline",0.150 ± 0.071 min⁻¹
same,Rate Constant k3,"Thalamus, baseline",0.111 ± 0.085 min⁻¹
same,Rate Constant k4,"Thalamus, baseline",0.030 ± 0.018 min⁻¹
same,VND,"Thalamus, baseline",3.67 ± 2.10
same,BPND,"Thalamus, blocking (NS6740)",0.88 ± 1.00
same,Rate Constant K1,"Thalamus, blocking (NS6740)",0.762 ± 0.129 mL·cm^−3·min^−1
same,Rate Constant k2,"Thalamus, blocking (NS6740)",0.070 ± 0.025 min⁻¹
same,Rate Constant k3,"Thalamus, blocking (NS6740)",0.023 ± 0.031 min⁻¹
same,Rate Constant k4,"Thalamus, blocking (NS6740)",0.012 ± 0.021 min⁻¹
same,VND,"Thalamus, blocking (NS6740)",12.09 ± 5.31
same,BPND,"Whole, baseline",3.31 ± 1.02
same,Rate Constant K1,"Whole, baseline",0.362 mL·cm^−3·min^−1 and 0.362 ± 0.038 mL·cm^−3·min^−1
same,Rate Constant k2,"Whole, baseline",0.131 ± 0.062 min⁻¹
same,Rate Constant k3,"Whole, baseline",0.093 ± 0.074 min⁻¹
same,Rate Constant k4,"Whole, baseline",0.027 ± 0.018 min⁻¹
same,VND,"Whole, baseline",3.32 ± 1.74
same,BPND,"Whole, blocking (NS6740)",0.84 ± 1.07
same,Rate Constant K1,"Whole, blocking (NS6740)",0.598 ± 0.108 mL·cm^−3·min^−1
same,Rate Constant k2,"Whole, blocking (NS6740)",0.062 ± 0.015 min⁻¹
same,Rate Constant k3,"Whole, blocking (NS6740)",0.018 ± 0.022 min⁻¹
same,Rate Constant k4,"Whole, blocking (NS6740)",0.011 ± 0.018 min⁻¹
same,VND,"Whole, blocking (NS6740)",10.27 ± 3.94
same,total volume of distribution VT,"cerebellum, baseline",13 mL∙cm^−3
same,total volume of distribution VT,"thalamus, baseline",17 mL∙cm^−3
same,"clearance rate constant k2, mean","whole brain, baseline",0.131
